Results as given in US8222270B2 (Medicis Pharmaceutical Corporation, priority 2008, dated 2012).
“And” between values parts separate entries of the source, which are not always exact repeats. Identical values can stand only once.

Legend:
[1] = Repeat dose oral toxicity, 6 months; assay type: in vivo, rats; conditions: dosed daily for 6 months
Protocol: (§1) The adverse effects observed for the high doses (10-30 mg/kg) in repeat dose oral toxicity studies in rats and monkeys could be related to exaggerated pharmacological effects of excessive cytokines induction and lymphoid stimulation: reduced body weight gains, anaemia, serum protein changes and death. […] An oral no-adverse-effect level of 3 mg/kg/day was determined in both rats and monkeys dosed daily for 6 months.

[2] = Physicochemical properties of the drug substance (solubility, pKa)
Protocol: Physicochemical Properties: • Physical Form: Crystalline solid that varies in colour from white to off-white or buff. […] It can be made soluble to the extent of at least 100 mg/mL in methanol (as a salt) upon the addition of a few drops of hydrochloric or acetic acid.

[3] = Acute single dose toxicity (oral, intraperitoneal, subcutaneous, intravenous); assay type: in vivo
[4] = Skin, eye and vaginal irritation studies; assay type: in vivo, rabbits
From the text: The more severe dermal irritation seen in the rat is not predictive of human response.

[5] = parameters: species or system mice; conditions: CD-1, mouse, in vivo, 2 years
[6] = Acute dermal toxicity under occlusion
[7] = tested on: interleukin-1 antagonist, interferon-α, 2′5′-oligoadenylate synthetase; assay: Biomarker response in 58 patients with AK treated 3 times per week for 16 weeks; assay type: in vivo, human; conditions: 16 weeks of dosing
[8] = Intravenous embryofetal development study; assay type: in vivo, rabbits
[9] = Repeat dose oral toxicity, 6 months; assay type: in vivo, monkeys; conditions: dosed daily for 6 months
Protocol: as §1

[10] = Oral (gavage) carcinogenicity study, 24 months
[11] = tested on: human monocytes/macrophages and keratinocytes; assay: In vitro cytokine induction; assay type: cell-based
From the text: The panel of cytokines induced varied with the cell's tissue origin.

[12] = Topical pharmacokinetics, 5 mg/kg three times per week for 4 weeks; conditions: rat, in vivo
[13] = Stability of calibration standards in spent receiver fluid; assay type: physicochemical; conditions: vs T = 0

CC(C)Cn1cnc2c(N)nc3ccccc3c21 [imiquimod, 1-(2-methylpropyl)-1H-imidazo[4,5-c]quinolin-4-amine]
Oral no-adverse-effect level [1]: 3 mg/kg/day
Solubility in fatty acids such as oleic acid and isostearic acid [2]: Soluble
pKa ([2]; UV spectroscopy and pH-solubility): ~7.5
Solubility in most common organic solvents and in aqueous systems ([2]; except at extremely low pH): Practically insoluble
solubility ([2]; methanol, upon addition of a few drops of hydrochloric or acetic acid, read-out: Solubility in methanol (as a salt)): ≥ 100 mg/mL
LD50 ([3]; Monkey, intravenous bolus): >6 mg/kg
LD50 ([3]; Monkey, intravenous infusion): ≈8 mg/kg
LD50 ([3]; Monkey, oral): >200 mg/kg
LD50 ([3]; Rat, subcutaneous): ≈20 mg/kg
Single dose toxicity signs ([3]; oral, intraperitoneal, subcutaneous or intravenous, lethal doses): central nervous system (CNS) stimulation and convulsions
Vaginal tract irritation ([4]; rat or rabbit, every other day for 10 days at 10 and 50 mg/dose): not irritating
Eye irritation ([4]; unformulated at 100 mg/eye or formulated up to 5 mg/eye): mild or no eye irritation
Skin irritation ([4]; unformulated at 500 mg or formulated up to 250 mg per site): non-irritating
Carcinogenic effect, female mice ([5]; female): no evidence of a carcinogenic effect
Liver tumours, male mice at the highest dose vs unexposed controls ([5]; male): Liver tumours were increased
Dermal lethal dose ([6]; rabbit, in vivo): greater than 5000 mg/kg
LD50 ([6]; rabbit, in vivo, topical, 5000 mg/kg): > 5000 mg/kg
Acute dermal toxicity ([6]; unformulated, under occlusion, 5000 mg/kg): did not reveal any toxic effects
2′5′-oligoadenylate synthetase, median concentration after multiple dosing vs single dose [7]: approximately 3 fold
Interferon-α, median concentration after multiple dosing vs single dose [7]: ≤ 3 fold
Interleukin-1 antagonist, median concentration after multiple dosing vs single dose [7]: < 2 fold
Teratogenicity ([8]; female, rabbit, in vivo): not teratogenic
Dose with no treatment related effects on embryofetal toxicity or teratogenicity ([8]; intravenous, gestational days 6-18): 2 mg/kg/day and 1 mg/kg/day
Oral no-adverse-effect level [9]: 3 mg/kg/day
Exposure multiple, male and female rats ([10]; 3 mg/kg 7×/week): 29 ×MRHD
Exposure multiple, male rats ([10]; 4 mg/kg 2×/week): 45 ×MRHD
Exposure multiple, female rats ([10]; 6 mg/kg 2×/week): 57 ×MRHD based on AUC comparisons
Highest dose tested without treatment related tumors, female rats ([10]; 2×/week, 24 months): 6 mg/kg
Highest dose tested without treatment related tumors, male rats ([10]; 2×/week, 24 months): 4 mg/kg
Highest dose tested without treatment related tumors, male and female rats ([10]; 7×/week, 24 months): 3 mg/kg
Carcinogenic effect, male and female rats ([10]; two-year bioassay, up to 3 mg/kg orally per day): no evidence of a carcinogenic effect
Release of interferon alpha (IFN-α) and other cytokines [11]: induces the release
Imiquimod in serum [12]: not quantifiable
48 h % recovered in Spent receiver fluid ([13]; Standard 5.275 μg/ml, Epidermal sheet + placebo, 37° C.): 86.828%
48 h % recovered in Spent receiver fluid ([13]; Standard 5.275 μg/ml, Epidermal sheet + placebo, Fridge): 88.881%
48 h % recovered in Spent receiver fluid ([13]; Standard 5.275 μg/ml, Epidermal sheet + placebo, RT): 86.540%
48 h % recovered in Spent receiver fluid ([13]; Standard 5.275 μg/ml, Epidermal sheet, 37° C.): 85.995%
48 h % recovered in Spent receiver fluid ([13]; Standard 5.275 μg/ml, Epidermal sheet, Fridge): 88.938%
48 h % recovered in Spent receiver fluid ([13]; Standard 5.275 μg/ml, Epidermal sheet, RT): 91.447%
48 h % recovered in Spent receiver fluid ([13]; Standard 5.275 μg/ml, Full thickness + placebo, 37° C.): 86.134%
48 h % recovered in Spent receiver fluid ([13]; Standard 5.275 μg/ml, Full thickness + placebo, Fridge): 90.260%
48 h % recovered in Spent receiver fluid ([13]; Standard 5.275 μg/ml, Full thickness + placebo, RT): 87.973%
48 h % recovered in Spent receiver fluid ([13]; Standard 5.275 μg/ml, Full thickness, 37° C.): 90.611%
48 h % recovered in Spent receiver fluid ([13]; Standard 5.275 μg/ml, Full thickness, Fridge): 94.586%
48 h % recovered in Spent receiver fluid ([13]; Standard 5.275 μg/ml, Full thickness, RT): 95.232%
48 h % recovered in Spent receiver fluid ([13]; Standard 42.2 μg/ml, Epidermal sheet + placebo, 37° C.): 95.095%
48 h % recovered in Spent receiver fluid ([13]; Standard 42.2 μg/ml, Epidermal sheet + placebo, Fridge): 93.077%
48 h % recovered in Spent receiver fluid ([13]; Standard 42.2 μg/ml, Epidermal sheet + placebo, RT): 92.904%
48 h % recovered in Spent receiver fluid ([13]; Standard 42.2 μg/ml, Epidermal sheet, 37° C.): 89.641%
48 h % recovered in Spent receiver fluid ([13]; Standard 42.2 μg/ml, Epidermal sheet, Fridge): 85.716%
48 h % recovered in Spent receiver fluid ([13]; Standard 42.2 μg/ml, Epidermal sheet, RT): 86.340%
48 h % recovered in Spent receiver fluid ([13]; Standard 42.2 μg/ml, Full thickness + placebo, 37° C.): 86.439%
48 h % recovered in Spent receiver fluid ([13]; Standard 42.2 μg/ml, Full thickness + placebo, Fridge): 83.976%
48 h % recovered in Spent receiver fluid ([13]; Standard 42.2 μg/ml, Full thickness + placebo, RT): 84.144%
48 h % recovered in Spent receiver fluid ([13]; Standard 42.2 μg/ml, Full thickness, 37° C.): 95.939%
48 h % recovered in Spent receiver fluid ([13]; Standard 42.2 μg/ml, Full thickness, Fridge): 95.103%
48 h % recovered in Spent receiver fluid ([13]; Standard 42.2 μg/ml, Full thickness, RT): 95.805%
